Test results from ChEMBL document CHEMBL1201862, “PubChem BioAssay data set” (2004).
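48-hour exposure; five concentrations; linearly interpolated endpoints. Abbreviation: GI50, concentration required for 50% inhibition of growth.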 Activity calls are given as the source filed them. Rule as the data show it: active = GI50 up to about 1.1 µM and inactive = higher.

Columns and labels:
Assay in all cases: growth of human tumour cells (NCI), 48 h
HT-29 = system: HT-29
Malme-3M = system: Malme-3M
LXFL 529 = system: LXFL 529
OVCAR-5 = system: OVCAR-5
SK-MEL-28 = system: SK-MEL-28
SNB-19 = system: SNB-19
OVCAR-4 = system: OVCAR-4
XF498 = system: XF498
UACC-257 = system: UACC-257
SNB-75 = system: SNB-75
DLD-1 = system: DLD-1
A549 = system: A549
NCI-H460 = system: NCI-H460
RXF 393 = system: RXF 393
OVCAR-3 = system: OVCAR-3
SR = system: SR
MOLT-4 = system: MOLT-4
NCI-H522 = system: NCI-H522
SF-539 = system: SF-539
COLO 205 = system: COLO 205
UACC-62 = system: UACC-62
HCT-116 = system: HCT-116
K562 = system: K562
SK-MEL-5 = system: SK-MEL-5
DMS-114 = system: DMS-114
OVCAR-8 = system: OVCAR-8
HL-60 = system: HL-60
SF-295 = system: SF-295
TK-10 = system: TK-10
SN12C = system: SN12C
DMS-273 = system: DMS-273
M19-MEL = system: M19-MEL
SW-620 = system: SW-620
UO-31 = system: UO-31
NCI-H23 = system: NCI-H23
HOP-62 = system: HOP-62
HCC 2998 = system: HCC 2998
RXF 631 = system: RXF 631
HOP-18 = system: HOP-18
786-0 = system: 786-0
KM12 = system: KM12
LOX IMVI = system: LOX IMVI
SNB-78 = system: SNB-78
SF-268 = system: SF-268
HOP-92 = system: HOP-92
CAKI-1 = system: CAKI-1
ACHN = system: ACHN
IGROV-1 = system: IGROV-1
M14 = system: M14
U-251 = system: U-251
CCRF-CEM = system: CCRF-CEM
HCT-15 = system: HCT-15
RPMI-8226 = system: RPMI-8226
SK-MEL-2 = system: SK-MEL-2
EKVX = system: EKVX
NCI-H226 = system: NCI-H226
KM-20L2 = system: KM-20L2
A498 = system: A498
SK-OV-3 = system: SK-OV-3

## Cc1cccc(NC(=O)CC(=O)N2N=C(N(CCC#N)c3ccc(Cl)cc3)CC2c2ccccc2)c1 (stereo unspecified)
HT-29
  GI50: > 100 µM (inactive)
Malme-3M
  GI50: > 100 µM (inactive)
LXFL 529
  GI50: > 100 µM (inactive)
OVCAR-5
  GI50: > 100 µM (inactive)
SK-MEL-28
  GI50: > 100 µM (inactive)
SNB-19
  GI50: > 100 µM (inactive)
OVCAR-4
  GI50: > 100 µM (inactive)
XF498
  GI50: > 100 µM (inactive)
UACC-257
  GI50: > 100 µM (inactive)
SNB-75
  GI50: > 100 µM (inactive)
DLD-1
  GI50: > 100 µM (inactive)
A549
  GI50: > 100 µM (inactive)
NCI-H460
  GI50: > 100 µM (inactive)
RXF 393
  GI50: > 100 µM (inactive)
OVCAR-3
  GI50: > 100 µM (inactive)
SR
  GI50: > 100 µM (inactive)
MOLT-4
  GI50: > 100 µM (inactive)
NCI-H522
  GI50: > 100 µM (inactive)
SF-539
  GI50: > 100 µM (inactive)
COLO 205
  GI50: > 100 µM (inactive)
UACC-62
  GI50: > 100 µM (inactive)
HCT-116
  GI50: > 100 µM (inactive)
K562
  GI50: > 100 µM (inactive)
SK-MEL-5
  GI50: > 100 µM (inactive)
DMS-114
  GI50: > 100 µM (inactive)
OVCAR-8
  GI50: > 100 µM (inactive)
HL-60
  GI50: > 100 µM (inactive)
SF-295
  GI50: > 100 µM (inactive)
TK-10
  GI50: > 100 µM (inactive)
SN12C
  GI50: > 100 µM (inactive)
DMS-273
  GI50: > 100 µM (inactive)
M19-MEL
  GI50: > 100 µM (inactive)
SW-620
  GI50: > 100 µM (inactive)
UO-31
  GI50: > 100 µM (inactive)
NCI-H23
  GI50: > 100 µM (inactive)
HOP-62
  GI50: > 100 µM (inactive)
HCC 2998
  GI50: > 100 µM (inactive)
RXF 631
  GI50: > 100 µM (inactive)
HOP-18
  GI50: > 100 µM (inactive)
786-0
  GI50: > 100 µM (inactive)
KM12
  GI50: > 100 µM (inactive)
LOX IMVI
  GI50: > 100 µM (inactive)
SNB-78
  GI50: > 100 µM (inactive)
SF-268
  GI50: > 100 µM (inactive)
HOP-92
  GI50: > 100 µM (inactive)
CAKI-1
  GI50: > 100 µM (inactive)
ACHN
  GI50: > 100 µM (inactive)
IGROV-1
  GI50: > 100 µM (inactive)
M14
  GI50: > 100 µM (inactive)
U-251
  GI50: > 100 µM (inactive)
CCRF-CEM
  GI50: > 100 µM (inactive)

## Cc1ccc(Oc2ccc(C)cc2[N+](=O)[O-])cc1
HT-29
  GI50: 40.7 µM (inactive)
Malme-3M
  GI50: > 100 µM (inactive)
LXFL 529
  GI50: 43.6 µM (inactive)
HCT-15
  GI50: 63.8 µM
OVCAR-5
  GI50: 38.2 µM (inactive)
SK-MEL-28
  GI50: 65.6 µM (inactive)
OVCAR-4
  GI50: 6.12 µM (inactive)
XF498
  GI50: 0.275 µM (active)
UACC-257
  GI50: 62.5 µM (inactive)
SNB-75
  GI50: 22.9 µM (inactive)
DLD-1
  GI50: 77.4 µM (inactive)
RPMI-8226
  GI50: 57.8 µM (inactive)
A549
  GI50: 92.9 µM (inactive)
NCI-H460
  GI50: 90.8 µM (inactive)
RXF 393
  GI50: 26.5 µM (inactive)
SK-MEL-2
  GI50: > 100 µM (inactive)
OVCAR-3
  GI50: 55.8 µM (inactive)
SR
  GI50: 33.7 µM (inactive)
MOLT-4
  GI50: 37.4 µM (inactive)
SF-539
  GI50: > 100 µM (inactive)
COLO 205
  GI50: > 100 µM (inactive)
UACC-62
  GI50: > 100 µM (inactive)
HCT-116
  GI50: 53.6 µM (inactive)
K562
  GI50: 38.5 µM (inactive)
SK-MEL-5
  GI50: 29.8 µM (inactive)
DMS-114
  GI50: 28.4 µM (inactive)
EKVX
  GI50: 48.3 µM (inactive)
OVCAR-8
  GI50: > 100 µM (inactive)
HL-60
  GI50: 26.4 µM (inactive)
SF-295
  GI50: > 100 µM (inactive)
TK-10
  GI50: > 100 µM (inactive)
SN12C
  GI50: > 100 µM (inactive)
DMS-273
  GI50: > 100 µM (inactive)
M19-MEL
  GI50: 79.4 µM (inactive)
SW-620
  GI50: > 100 µM (inactive)
UO-31
  GI50: 29.2 µM (inactive)
NCI-H23
  GI50: 31.5 µM (inactive)
NCI-H226
  GI50: 57.5 µM (inactive)
HOP-62
  GI50: > 100 µM (inactive)
HCC 2998
  GI50: > 100 µM (inactive)
RXF 631
  GI50: > 100 µM (inactive)
HOP-18
  GI50: > 100 µM (inactive)
KM12
  GI50: > 100 µM (inactive)
LOX IMVI
  GI50: 40.1 µM (inactive)
SNB-78
  GI50: 31.6 µM (inactive)
KM-20L2
  GI50: > 100 µM (inactive)
SF-268
  GI50: > 100 µM (inactive)
HOP-92
  GI50: 28.6 µM (inactive)
ACHN
  GI50: 69.2 µM (inactive)
IGROV-1
  GI50: > 100 µM (inactive)
A498
  GI50: > 100 µM (inactive)
M14
  GI50: 96.6 µM (inactive)
U-251
  GI50: 25.8 µM (inactive)
SK-OV-3
  GI50: > 100 µM (inactive)
CCRF-CEM
  GI50: 36.7 µM (inactive)
